Converted amounts (≈) assume the structure as drawn.
Key:
[1] = tested on: Staphylococcus aureus; test: Antibacterial activity against Staphylococcus aureus 209P FDA after 18 hrs by hole-plate agar diffusion method; format: functional
[2] = tested on: Enterococcus faecalis; test: Antibacterial activity against Enterococcus faecalis after 18 hrs by hole-plate agar diffusion method; format: functional
[3] = tested on: Bacillus subtilis; test: Antibacterial activity against Bacillus subtilis ATCC 1633 after 18 hrs by hole-plate agar diffusion method; format: functional; conditions: ATCC 1633, 18 h
[4] = tested on: Nannizzia gypsea; test: Antifungal activity against Microsporum gypseum after 3 to 7 days; format: functional
[5] = tested on: Escherichia coli; test: Antibacterial activity against Escherichia coli PZH 026 B6 after 18 hrs by hole-plate agar diffusion method; format: functional
[6] = tested on: Candida albicans; test: Antifungal activity against Candida albicans PCM 1409 PZH after 3 to 7 days; format: functional, organism-based

MIC [1] [µM]	MIC [2] [µM]	MIC [3] [µM]	MIC [4] [µM]	MIC [5] [µM]	MIC [6] [µM]	SMILES
25 (≈ 10.1 µg/mL)	25 (≈ 10.1 µg/mL)	19 (≈ 7.71 µg/mL)	123 (≈ 49.9 µg/mL)			CC1CCN(CCCCCCOc2ccc(/C=C/C(=O)c3ccccc3)cc2)CC1
			274 (≈ 100 µg/mL)			O=C(/C=C/c1ccc(OCCCCN2CCOCC2)cc1)c1ccccc1
			264 (≈ 100 µg/mL)			O=C(/C=C/c1ccc(OCCCCCN2CCOCC2)cc1)c1ccccc1
			254 (≈ 100 µg/mL)			O=C(/C=C/c1ccc(OCCCCCCN2CCOCC2)cc1)c1ccccc1
			189 (≈ 74.8 µg/mL)			O=C(/C=C/c1ccc(SCCCCCN2CCOCC2)cc1)c1ccccc1
			< 244			O=C(/C=C/c1ccc(SCCCCCCN2CCOCC2)cc1)c1ccccc1
			268 (≈ 100 µg/mL)			O=C(/C=C/c1ccc(OCCCCCBr)cc1)c1ccccc1
275 (≈ 100 µg/mL)	275 (≈ 100 µg/mL)	275 (≈ 100 µg/mL)				O=C(/C=C/c1ccc(OCCCCN2CCCCC2)cc1)c1ccccc1
254 (≈ 100 µg/mL)	254 (≈ 100 µg/mL)	254 (≈ 100 µg/mL)	254 (≈ 100 µg/mL)	254 (≈ 100 µg/mL)	127 (≈ 50 µg/mL)	O=C(/C=C/c1ccc(SCCCCCN2CCCCC2)cc1)c1ccccc1
265 (≈ 100 µg/mL)	265 (≈ 100 µg/mL)	265 (≈ 100 µg/mL)				O=C(/C=C/c1ccc(OCCCCCN2CCCCC2)cc1)c1ccccc1
133 (≈ 50.2 µg/mL)	265 (≈ 100 µg/mL)	265 (≈ 100 µg/mL)	265 (≈ 100 µg/mL)			CC1CCN(CCCCOc2ccc(/C=C/C(=O)c3ccccc3)cc2)CC1
19 (≈ 7.44 µg/mL)	26 (≈ 10.2 µg/mL)	128 (≈ 50.1 µg/mL)	256 (≈ 100 µg/mL)			CC1CCN(CCCCCOc2ccc(/C=C/C(=O)c3ccccc3)cc2)CC1
256 (≈ 100 µg/mL)	256 (≈ 100 µg/mL)	256 (≈ 100 µg/mL)	< 256			O=C(/C=C/c1ccc(OCCCCCCN2CCCCC2)cc1)c1ccccc1
21 (≈ 9.4 µg/mL)	209 (≈ 93.6 µg/mL)	209 (≈ 93.6 µg/mL)				O=C(/C=C/c1ccc(OCCCCCCCCCCN2CCCCC2)cc1)c1ccccc1
267 (≈ 100 µg/mL)						O=C(/C=C/c1ccc(SCCCCBr)cc1)c1ccccc1
25 (≈ 10.2 µg/mL)	25 (≈ 10.2 µg/mL)	25 (≈ 10.2 µg/mL)	< 246		< 246	O=C(/C=C/c1ccc(SCCCCCCN2CCCCC2)cc1)c1ccccc1
216 (≈ 100 µg/mL)			216 (≈ 100 µg/mL)			O=C(/C=C/c1ccc(SCCCCCCCCCCN2CCCCC2)cc1)c1ccccc1
			193 (≈ 75.1 µg/mL)			O=C(/C=C/c1ccc(SCCCCCBr)cc1)c1ccccc1
26 (≈ 9.87 µg/mL)	264 (≈ 100 µg/mL)	26 (≈ 9.87 µg/mL)	264 (≈ 100 µg/mL)			O=C(/C=C/c1ccc(SCCCCN2CCCCC2)cc1)c1ccccc1
25 (≈ 9.84 µg/mL)	254 (≈ 100 µg/mL)	254 (≈ 100 µg/mL)	191 (≈ 75.2 µg/mL)			CC1CCN(CCCCSc2ccc(/C=C/C(=O)c3ccccc3)cc2)CC1
18 (≈ 7.34 µg/mL)	25 (≈ 10.2 µg/mL)	25 (≈ 10.2 µg/mL)	184 (≈ 75 µg/mL)		184 (≈ 75 µg/mL)	CC1CCN(CCCCCSc2ccc(/C=C/C(=O)c3ccccc3)cc2)CC1
24 (≈ 10.1 µg/mL)	24 (≈ 10.1 µg/mL)	18 (≈ 7.59 µg/mL)	< 237		< 237	CC1CCN(CCCCCCSc2ccc(/C=C/C(=O)c3ccccc3)cc2)CC1
245 (≈ 100 µg/mL)	245 (≈ 100 µg/mL)					O=C(/C=C/c1ccc(SCCCCCCN2CCNCC2)cc1)c1ccccc1
263 (≈ 100 µg/mL)	263 (≈ 100 µg/mL)	263 (≈ 100 µg/mL)				O=C(/C=C/c1ccc(SCCCCN2CCNCC2)cc1)c1ccccc1
			11 (≈ 10.2 µg/mL)		0.5 (≈ 0.462 µg/mL)	C[C@@H]1[C@H](O)[C@@H](C)/C=C/C=C/C=C/C=C/C=C/C=C/C=C/[C@H](O[C@@H]2O[C@H](C)[C@@H](O)[C@H](N)[C@@H]2O)C[C@@H]2O[C@](O)(C[C@@H](O)C[C@@H](O)[C@H](O)CC[C@@H](O)C[C@@H](O)CC(=O)O[C@H]1C)C[C@H](O)[C@H]2C(=O)O [AMPHOTERICIN B]
15 (≈ 4.85 µg/mL)	15 (≈ 4.85 µg/mL)	15 (≈ 4.85 µg/mL)		15 (≈ 4.85 µg/mL)		O=C(N[C@H](CO)[C@H](O)c1ccc([N+](=O)[O-])cc1)C(Cl)Cl [CHLORAMPHENICOL]

Reference: ChEMBL document CHEMBL1149800, “Synthesis, physicochemical properties and antimicrobial evaluation of new (E)-chalcones” (Eur J Med Chem, 2008)
